Assay results from PMC9820444, “Design and Synthesis of Acridine-Triazole and Acridine-Thiadiazole Derivatives and Their Inhibitory Effect against Cancer Cells” (International Journal of Molecular Sciences, 2022).
Where two headings read alike, the source gives them in different places. Marks after values point to notes of the source that are not given here.

What was measured:
[1] = system: subintestinal veins (SIVs) in zebrafish embryos; experiment: Zebrafish angiogenesis assay (subintestinal veins, NBT/BCIP staining); assay type: in vivo; settings: 1 mg/mL; for area of blood vessels: additional blood vessels were formed on the blood vessel edge
Description: Currently, the zebrafish has emerged as a valuable model organism to substitute traditional models for studying angiogenesis inhibitors. The genes of zebrafish show 70–80% similarity to humans, and the vascular structure of zebrafish has high similarity to that of other vertebrates. Therefore, the subintestinal veins (SIVs) in the zebrafish embryos are used as evaluation indicators for anti-angiogenesis inhibitors. In this study, NBT/BCIP vascular staining was used to observe the angiogenesis effect of representative drugs (4h, 4f, 5d, 5h, 6g and 6h) in a zebrafish model. […] Compared with the blank control group, the area of the meshed pattern vessel and the number of vascular branches in the network decreased after the administration of compounds 4h, 5d, 5h and 6h.
The 24 hpf zebrafish embryos were dechorionated with a 1 gL^−1 pronase treatment and maintained in distilled water in 12-well cell culture plates (each well contained 20 embryos). A negative control group containing zebrafish embryos in distilled water and a vehicle treatment group that was treated with 2% dimethyl sulfoxide (DMSO) were prepared. The anti-angiogenic compounds were diluted to 1 mg/mL. After incubating at 28 °C for […], the embryos were immersed in 4% paraformaldehyde and dehydrated by gradient ethanol. Subsequently, the embryos were balanced in NTMT buffer (5 M NaCl + 1 M Tris [pH 9.0–9.5] + 1 M MgCl2+ 10% Tween), and nitrotetrazolium blue chloride (NBT) and p-toluidine salt (BCIP) staining were performed. To evaluate the effect of compounds on the angiogenesis of zebrafish embryos, the growth of embryonic sub-intestinal veins (SIVs) at 72 hpf was observed using an IX71 Olympus microscope (Hamburger, Germany). The length of the SIVs was calculated using the image J 1.8.0 software (Bethesda, MD, USA).

zebrafish embryos = system: zebrafish embryos; set-up: mortality rate of zebrafish embryos: dose or concentration left out as unconfirmed; settings: for MAR (malformation rate) / MOR (mortality rate): zebrafish embryos 72 hpf
Description: In this experiment, 2% DMSO was used to dissolve the target products, and the abnormal rate (MAR) and mortality rate (MOR) of zebrafish embryos (72 hpf) were used for statistics.
The zebrafish embryos were collected at 6 hpf and randomly divided into naive control (embryos maintained in distilled water), vehicle control (embryos treated with 2% DMSO), and drug groups. Stock solutions of all drugs were prepared in 2% DMSO as a solubilizing agent and diluted to three concentrations (0.5 mg/mL, 1 mg/mL, and 2 mg/mL). Each group had 20 embryos per test concentration. […] Each compound was evaluated in three independent biological experiments.

[2] = system: hepatocellular carcinoma bel-7404 (BEL-7404); experiment: MTT antiproliferative assay, BEL-7404; assay type: cell-based, human; settings: read-out: Effect against cell viability (IC50), BEL-7404
Description: (§1) All newly synthesized acridinyl derivatives (4–6) were screened for their anticancer activities in comparison to the reference compounds, 5-FU and cis-platinum. Compounds 4–6 were tested for their in vitro antitumor activities against HFF, MGC-803, BEL-7404, NCI-H460, and T24 tumor cell lines, and human normal liver cells (LO2), and the results are shown in Table 1. Most of the compounds had strong selective potency against MGC-803 and T24 cancer cells. […] In the T24 cell line assay, many compounds, especially the series of compound 4, had significant activity against T24. This implies that there is a significant increase in potency after the introduction of the aroyl thiourea group. […] To our delight, most 1,2,4-triazolethiones (5) and 1,2,4-thiadiazoles (6) have low toxicity to LO2 compared with the positive control.
(§2) Test samples, including compounds 4–6 and commercial classical anticancer drugs (5-FU and cis-platinum), were screened for their anti-cancer activity against HFF human foreskin fibroblast cells, MGC-803 human gastric cancer cells, BEL-7404 human hepatocellular carcinoma cells, NCI-H460 human large cell carcinoma cells, and T24 human bladder carcinoma cells using the 3-(4,5-dimethylthiazol-2-yl)-2,5-diphenyltetrazoliumbromide (MTT) assay method cited in the literature. The initial concentration of all the test samples was 100 μg/mL, which was serially diluted in complete medium with ten-fold dilutions to give six concentrations per compound. Their cytotoxicity was determined in 96-well flat bottomed microtiter plates. All the test samples were tested in triplicate. The results were expressed as the drug concentration that inhibited cell growth by 50% as compared to the controls (IC50). The IC50 values were calculated from regression lines obtained from the percent cell growth inhibition plotted as a function of the logarithm of the dose.

[3] = system: human normal liver cells (LO2); experiment: Cytotoxicity against normal liver cells LO2; assay type: cell-based; settings: MTT, read-out: Effect against cell viability (IC50), LO2
Description: as §1, §2

[4] = system: human foreskin fibroblasts (HFF); experiment: MTT antiproliferative assay, HFF; assay type: cell-based; settings: read-out: Effect against cell viability (IC50), HFF
Description: as §1, §2

[5] = system: large cell lung cancer cells (NCI-H460); experiment: MTT antiproliferative assay, NCI-H460; assay type: cell-based, human; settings: read-out: Effect against cell viability (IC50), NCI-H460
Description: as §1, §2

[6] = system: human gastric cancer cells-803 (MGC-803); experiment: MTT antiproliferative assay, MGC-803; assay type: cell-based; settings: read-out: Effect against cell viability (IC50), MGC-803
Description: as §1, §2

[7] = system: bladder cancer cells (T24); experiment: MTT antiproliferative assay, T24; assay type: cell-based, human; settings: read-out: Effect against cell viability (IC50), T24
Description: as §1, §2

[8] = molecular target: T1, DNA topoisomerase I (topo I) (Bos taurus, UniProt F1MN93); experiment: Topo I inhibitory activity (pBR322); assay type: biochemical; settings: at 100 µM
T1 construct: purchased Takara Bio Inc. (Shiga, Japan)
T1 sequence (F1MN93 1-767): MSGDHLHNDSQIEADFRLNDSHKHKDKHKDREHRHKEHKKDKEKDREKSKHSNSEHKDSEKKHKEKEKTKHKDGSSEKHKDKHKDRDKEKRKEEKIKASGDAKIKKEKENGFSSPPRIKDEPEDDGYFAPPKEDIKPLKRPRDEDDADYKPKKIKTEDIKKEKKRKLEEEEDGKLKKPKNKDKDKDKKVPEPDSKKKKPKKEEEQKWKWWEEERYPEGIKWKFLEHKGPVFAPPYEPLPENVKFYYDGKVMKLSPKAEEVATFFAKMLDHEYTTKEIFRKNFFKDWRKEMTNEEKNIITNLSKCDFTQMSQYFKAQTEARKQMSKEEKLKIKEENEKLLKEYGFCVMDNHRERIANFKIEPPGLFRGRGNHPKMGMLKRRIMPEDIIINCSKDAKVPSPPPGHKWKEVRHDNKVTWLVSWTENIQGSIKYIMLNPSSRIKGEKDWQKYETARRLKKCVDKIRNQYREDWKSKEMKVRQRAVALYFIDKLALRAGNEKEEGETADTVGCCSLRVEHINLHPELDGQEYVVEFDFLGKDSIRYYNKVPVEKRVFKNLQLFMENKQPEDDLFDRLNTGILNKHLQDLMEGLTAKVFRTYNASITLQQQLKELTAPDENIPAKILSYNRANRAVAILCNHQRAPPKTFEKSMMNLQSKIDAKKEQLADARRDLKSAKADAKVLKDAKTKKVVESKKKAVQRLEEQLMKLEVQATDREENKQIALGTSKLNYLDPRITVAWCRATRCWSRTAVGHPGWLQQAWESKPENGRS

| IC50 ([2]; Homo sapiens) [µM] | IC50 ([5]; Homo sapiens) [µM] | IC50 ([6]; Homo sapiens, MGC-803, MTT) [µM] | IC50 ([7]; Homo sapiens) [µM] | melting point [°C] | SMILES | IC50 [2] [µM] | IC50 [3] [µM] | IC50 [4] [µM] | IC50 [5] [µM] | IC50 ([6]; MTT) [µM] | IC50 [7] [µM] | IC50 ([3]; Homo sapiens) [µM] | IC50 ([4]; Homo sapiens, Fibroblast) [µM] | also measured |
| --- | --- | --- | --- | --- | --- | --- | --- | --- | --- | --- | --- | --- | --- | --- |
|  |  |  |  |  | COc1ccc2[nH]c3ccccc3c(=NC(=S)NNC(=O)c3ccncc3)c2c1 [4a, 1-2′-methoxyl acridinyl-3-4′-pyridinamide thiourea] | 26.9 ± 2.58 | 22 ± 1.71 | 75.8 ± 3.52 | 36.4 ± 3.12 | 10.9 ± 1.82 | > 100 |  |  | area of blood vessels ([1]; zebrafish embryos): could reduce the area of blood vessels; MAR (malformation rate) (zebrafish embryos; 1 mg/mL): 85% ^c; MOR (mortality rate) (zebrafish embryos; 1 mg/mL): 15% ^c; MAR (malformation rate) (zebrafish embryos; 1.5 mg/mL): 60% ^c; MOR (mortality rate) (zebrafish embryos; 1.5 mg/mL): 40% ^c; MAR (malformation rate) (zebrafish embryos; 2 mg/mL): 55% ^c; MOR (mortality rate) (zebrafish embryos; 2 mg/mL): 45% ^c; total mortality and malformation rate (zebrafish embryos; zebrafish embryos, 2.0 mg.L^−1): 100% |
|  |  |  |  |  | COc1ccc2[nH]c3ccccc3c(=NC(=S)NNC(=O)c3ccc(Cl)cc3)c2c1 [4e] | 25.9 ± 2.17 | 10.2 ± 1.12 | 66.8 ± 4.52 | 73.2 ± 3.67 | 25.6 ± 1.97 | 10.3 ± 1.07 |  |  | topo I inhibitory activity [8]: potent |
| 28.7 ± 2.24 | 36.5 ± 3.92 | 15.1 ± 0.98 | 29.3 ± 1.91 | 262 to 267 | COc1ccc(-c2n[nH]c(=S)n2-c2c3ccccc3nc3ccc(OC)cc23)cc1 [5c, 4-(2-methoxyacridin-9-yl)-5-(4-methoxyphenyl)-2,4-dihydro-3H-1,2,4-triazole-3-thione] |  |  |  |  |  |  | > 100 | 75.5 ± 2.92 | topo I inhibitory activity [8]: potent |
|  |  |  |  |  | COc1ccc(-n2c(-c3c4ccccc4nc4ccc(C)cc34)n[nH]c2=S)cc1 [5h, 4-(4-methoxyphenyl)-4-(2-methylacridin-9-yl)-2,4-dihydro-3H-1,2,4-triazole-3-thione] | 40.3 ± 2.06 | 37.7 ± 2.47 | 68.1 ± 2.64 | 26.3 ± 2.51 | 10.9 ± 0.97 | 11.2 ± 1.16 |  |  | reduction in the vessel length (SIVs) compared to the mean vessel length for the controls ([1]; 72 hpf zebrafish embryos): ~50%; area of the meshed pattern vessel and number of vascular branches in the network ([1]; zebrafish embryos, compared with blank control group): decreased; mortality rate of zebrafish embryos (zebrafish embryos): ~0%; malformation rate of zebrafish embryos (zebrafish embryos; 2.0 mg.L^−1): less than 15%; MAR (malformation rate) (zebrafish embryos; 1 mg/mL): 5% ^a; MOR (mortality rate) (zebrafish embryos; 1 mg/mL): 0%; MAR (malformation rate) (zebrafish embryos; 1.5 mg/mL): 10% ^a; MOR (mortality rate) (zebrafish embryos; 1.5 mg/mL): 0%; MAR (malformation rate) (zebrafish embryos; 2 mg/mL): 15% ^a; MOR (mortality rate) (zebrafish embryos; 2 mg/mL): 0% |
| 32.3 ± 2.82 | 47.5 ± 3.51 | 23.3 ± 1.97 | 49.4 ± 4.59 | 263 to 265 | COC1=CC2C(=Nc3nnc(-c4ccccc4)s3)c3ccccc3NC2C=C1 (centres unmarked) [6b, 7-methoxy-N-(5-phenyl-1,3,4-thiadiazol-2-yl)-10,10a-dihydroacridin-9(8aH)-imine] |  |  |  |  |  |  | > 100 | 79.3 ± 2.48 |  |
| 25.1 ± 2.15 | 30.2 ± 2.45 | 12.1 ± 1.22 | 24.3 ± 2.34 | 230 to 232 | COC1=CC2C(=Nc3nnc(-c4ccc(OC)cc4)s3)c3ccccc3NC2C=C1 (centres unmarked) [6c, 7-methoxy-N-(5-(4-methoxyphenyl)-1,3,4-thiadiazol-2-yl)-10,10a-dihydroacridin-9(8aH)-imine] |  |  |  |  |  |  | > 100 | 65.2 ± 3.92 |  |
| > 100 | > 100 | 26.7 ± 3.35 | > 100 | 258 to 260 | COC1=CC2C(=Nc3nnc(-c4ccc([N+](=O)[O-])cc4)s3)c3ccccc3NC2C=C1 (centres unmarked) [6d, 7-methoxy-N-(5-(4-nitrophenyl)-1,3,4-thiadiazol-2-yl)-10,10a-dihydroacridin-9(8aH)-imine] |  |  |  |  |  |  | > 100 | > 100 |  |
| 40.3 ± 2.19 | 55.7 ± 3.28 | 12.3 ± 1.96 | 13.9 ± 1.37 | 276 to 278 | CC1=CC2C(=Nc3nnc(-c4ccncc4)s3)c3ccccc3NC2C=C1 (centres unmarked) [6f, 7-methyl-N-(5-(pyridin-4-yl)-1,3,4-thiadiazol-2-yl)-10,10a-dihydroacridin-9(8aH)-imine] |  |  |  |  |  |  | 37.2 ± 2.12 | 45.4 ± 2.18 |  |
| 31.2 ± 3.27 | 25.9 ± 1.83 | 9.01 ± 1.32 | 19.3 ± 1.05 | 294 to 296 | CC1=CC2C(=Nc3nnc(-c4ccccc4)s3)c3ccccc3NC2C=C1 (centres unmarked) [6g, 7-methyl-N-(5-phenyl-1,3,4-thiadiazol-2-yl)-10,10a-dihydroacridin-9(8aH)-imine] |  |  |  |  | 9.95 ± 1.03 |  | > 100 | 76.5 ± 2.79 | area of blood vessels ([1]; zebrafish embryos): could reduce the area of blood vessels |
| 48.5 ± 3.06 | 13.9 ± 1.83 | 13 ± 1.89 | 15.5 ± 1.98 | 258 to 260 | CC1=CC2C(=Nc3nnc(-c4ccc(Cl)cc4)s3)c3ccccc3NC2C=C1 (centres unmarked) [6j, 7-methyl-N-(5-(4-chlorophenyl)-1,3,4-thiadiazol-2-yl)-10,10a-dihydroacridin-9(8aH)-imine] |  |  |  |  |  |  | 51.2 ± 3.09 | 56.2 ± 3.16 |  |
